“And” between values parts separate entries of the source, which are not always exact repeats. Equal values may be shown once. Results filed as inconclusive are left out.

This test deals with BDF1 mice, colon carcinoma 38 sc, T/C %. Briefly: NCI In Vivo Anticancer Drug Screen. Data for tumor model Colon Carcinoma 38 (subcutaneous) in B6D2F1 (BDF1) mice. Conditions: endpoint: median tumor weight (est.), higher = larger tumour. The essentials:
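Transplantable tumor in mice; compound-treated vs vehicle-dosed controls. Measured survival or tumor size; value = T ÷ C.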

Where [1] appears, read: dose: 25.0 mg/kg/injection, schedule: Q07DX002 (ip), vehicle: Klucel (hydroxypropylcellulose) (HPC).
Where [2] appears, read: dose: 25.0 mg/kg/injection, schedule: Q07DX002 (ip), vehicle: saline with Tween-80.
The mark [3] stands for this setting: dose: 50.0 mg/kg/injection, schedule: Q07DX002 (ip), vehicle: Klucel (hydroxypropylcellulose) (HPC).
Where [4] appears, read: dose: 50.0 mg/kg/injection, schedule: Q07DX002 (ip), vehicle: saline with Tween-80.
Where [5] appears, read: dose: 100.0 mg/kg/injection, schedule: Q07DX002 (ip), vehicle: Klucel (hydroxypropylcellulose) (HPC).
Where [6] appears, read: dose: 100.0 mg/kg/injection, schedule: Q07DX002 (ip), vehicle: saline with Tween-80.
Setting [7] is: dose: 200.0 mg/kg/injection, schedule: Q07DX002 (ip), vehicle: saline with Tween-80.
[8] abbreviates: dose: 400.0 mg/kg/injection, schedule: Q07DX002 (ip), vehicle: saline with Tween-80.
Where [9] appears, read: dose: 25.0 mg/kg/injection, schedule: Q07DX002 (ip), vehicle: saline.
[10] abbreviates: dose: 50.0 mg/kg/injection, schedule: Q07DX002 (ip), vehicle: saline.
Setting [11] is: dose: 200.0 mg/kg/injection, schedule: Q07DX002 (ip), vehicle: saline.
Where [12] appears, read: dose: 400.0 mg/kg/injection, schedule: Q07DX002 (ip), vehicle: saline.
[13] abbreviates: dose: 12.5 mg/kg/injection, schedule: Q07DX002 (ip), vehicle: saline with Tween-80.
Setting [14] is: dose: 0.25 mg/kg/injection, schedule: Q07DX002 (ip), vehicle: saline with Tween-80.
Setting [15] is: dose: 0.5 mg/kg/injection, schedule: Q07DX002 (ip), vehicle: saline with Tween-80.
[16] abbreviates: dose: 1.0 mg/kg/injection, schedule: Q07DX002 (ip), vehicle: saline with Tween-80.
Where [17] appears, read: dose: 2.0 mg/kg/injection, schedule: Q07DX002 (ip), vehicle: saline with Tween-80.
The mark [18] stands for this setting: dose: 100.0 mg/kg/injection, schedule: Q07DX002 (ip), vehicle: saline.

`C(C#CCN1CCOCC1)#CCN1CCOCC1`: the T/C is 80 % of control under setting [1]; 166 % of control under setting [2]; 60 % of control under setting [3]; 213 % of control under setting [4]; 65 % of control under setting [5]; 177 % of control under setting [6]. Further, the T/C is, setting by setting: (dose: 200.0 mg/kg/injection, schedule: Q07DX002 (ip), vehicle: Klucel (hydroxypropylcellulose) (HPC)) 49 % of control; under setting [7], 296 % of control; (dose: 400.0 mg/kg/injection, schedule: Q07DX002 (ip), vehicle: Klucel (hydroxypropylcellulose) (HPC)) 94 % of control; under setting [8], 285 % of control; (dose: 800.0 mg/kg/injection, schedule: Q07DX002 (ip), vehicle: Klucel (hydroxypropylcellulose) (HPC)) 60 % of control; (dose: 800.0 mg/kg/injection, schedule: Q07DX002 (ip), vehicle: saline with Tween-80) 262 % of control.

As to `COC(=O)C(Cl)(Cl)N=Nc1c(Cl)cc(Cl)c(C)c1Cl`, the T/C is, setting by setting: (dose: 12.5 mg/kg/injection, schedule: Q07DX002 (ip), vehicle: saline) 118 % of control; under setting [9], 123 % of control; under setting [10], 123 % of control; under setting [11], 101 % of control.

In the case of `Nc1ncnc2c1ncn2C1OC(COP(=O)(O)O)C(O)C1O` (stereo not given), the T/C is, setting by setting: (dose: 12.5 mg/kg/injection, schedule: Q07DX003 (ip), vehicle: water) 79 % of control; (dose: 25.0 mg/kg/injection, schedule: Q07DX003 (ip), vehicle: water) 70 % of control; (dose: 50.0 mg/kg/injection, schedule: Q07DX003 (ip), vehicle: water) 60 % of control; (dose: 80.0 mg/kg/injection, schedule: Q07DX002 (ip), vehicle: water) 81 % of control; (dose: 100.0 mg/kg/injection, schedule: Q07DX003 (ip), vehicle: water) 95 % of control; (dose: 160.0 mg/kg/injection, schedule: Q07DX002 (ip), vehicle: water) 70 % of control. In addition, the T/C under setting [11] was 94 % of control; the T/C (dose: 200.0 mg/kg/injection, schedule: Q07DX003 (ip), vehicle: water) is 118 % of control; the T/C (dose: 320.0 mg/kg/injection, schedule: Q07DX002 (ip), vehicle: water) was 80 % of control; the T/C under setting [12] was 89 % of control; the T/C (dose: 400.0 mg/kg/injection, schedule: Q07DX003 (ip), vehicle: water) is 56 % of control; the T/C (dose: 640.0 mg/kg/injection, schedule: Q07DX002 (ip), vehicle: water) was 86 % of control. The T/C is, setting by setting: (dose: 1600.0 mg/kg/injection, schedule: Q07DX002 (ip), vehicle: saline) 77 % of control; (dose: 3200.0 mg/kg/injection, schedule: Q07DX002 (ip), vehicle: saline) 50 % of control.

On to `NC(=S)N/N=C/c1ccc(OC(=O)COc2ccc(Cl)cc2)cn1`, for which the T/C under setting [13] is 61 % of control; the T/C under setting [2] is 77 % of control; the T/C under setting [4] was 119 % of control; the T/C under setting [6] is 89 % of control; the T/C under setting [7] is 81 % of control; the T/C under setting [8] was 70 % of control.

On to `COC1=C2C[C@@H](C)C[C@@H](OC)[C@@H](O)[C@H](C)/C=C(\C)[C@@H](OC(N)=O)[C@H](OC)/C=C\C=C(/C)C(=O)NC(=CC1=O)C2=O`, for which the T/C was 92 % of control and 100 % of control under setting [14]; 86 % of control under setting [15]; 108 % of control under setting [16]; 94 % of control under setting [17]; 98 % of control (dose: 4.0 mg/kg/injection, schedule: Q07DX002 (ip), vehicle: saline with Tween-80); 92 % of control and 94 % of control (dose: 8.0 mg/kg/injection, schedule: Q07DX002 (ip), vehicle: saline with Tween-80).

With `NC1=NC(=O)N2CC12` (stereo not given), the T/C under setting [9] is 81 % of control; the T/C under setting [10] is 82 % of control and 83 % of control; the T/C under setting [18] is 81 % of control and 104 % of control; the T/C under setting [11] is 66 % of control and 70 % of control; the T/C under setting [12] was 79 % of control.

Consider `CCCCCCCCCCCCCCCC(=O)O[C@@]12C[C@@H](C)[C@@]3(O)[C@@H](C=C(CO)C[C@]4(O)C(=O)C(C)=C[C@@H]34)[C@@H]1C2(C)C`, for which the T/C (dose: 0.06 mg/kg/injection, schedule: Q07DX002 (ip), vehicle: saline) was 92 % of control; the T/C (dose: 0.25 mg/kg/injection, schedule: Q07DX002 (ip), vehicle: saline) is 91 % of control; the T/C (dose: 0.5 mg/kg/injection, schedule: Q07DX002 (ip), vehicle: saline) is 101 % of control; the T/C (dose: 1.0 mg/kg/injection, schedule: Q07DX002 (ip), vehicle: saline) was 60 % of control.

With `O=C(Nc1cccc(Cl)c1)ON1C(=O)C2C(C1=O)C1(Cl)C(Cl)C(Cl)C2(Cl)C1(Cl)Cl` (stereo not given), the T/C is 95 % of control under setting [6], 89 % of control under setting [7] and 58 % of control under setting [8].

Consider `C=C(Cl)C(=NC(C)(C)C)Nc1ccccc1C`, for which the T/C is 68 % of control (dose: 6.25 mg/kg/injection, schedule: Q07DX002 (ip), vehicle: Klucel (hydroxypropylcellulose) (HPC)); 96 % of control (dose: 12.5 mg/kg/injection, schedule: Q07DX002 (ip), vehicle: Klucel (hydroxypropylcellulose) (HPC)); 76 % of control under setting [1]; 84 % of control under setting [3]; 113 % of control under setting [5].

On to `O=[N+]([O-])c1ccc(Sc2ccncn2)c([N+](=O)[O-])c1`, for which the T/C under setting [13] was 51 % of control; the T/C under setting [2] is 64 % of control and 74 % of control; the T/C under setting [6] was 43 % of control and 44 % of control.

For `CS(=O)(=O)CS(=O)(=O)OCCCl`, the T/C runs as follows: (dose: 1.5 mg/kg/injection, schedule: Q07DX002 (ip), vehicle: saline) 86 % of control; (dose: 3.0 mg/kg/injection, schedule: Q07DX002 (ip), vehicle: saline) 91 % of control; (dose: 6.0 mg/kg/injection, schedule: Q07DX002 (ip), vehicle: saline) 97 % of control; (dose: 12.0 mg/kg/injection, schedule: Q07DX002 (ip), vehicle: saline) 155 % of control; under setting [2], 73 % of control.

For the molecule `O=Cc1ccc([N+](=O)[O-])s1`, the T/C was 124 % of control and 108 % of control (dose: 6.25 mg/kg/injection, schedule: Q07DX002 (ip), vehicle: saline with Tween-80); 108 % of control under setting [2]; 57 % of control under setting [4].

Consider `O=C1CCC(=O)N1CO`, for which the T/C is, setting by setting: under setting [10], 112 % of control and 98 % of control; under setting [18], 99 % of control and 100 % of control; under setting [11], 76 % of control and 91 % of control; under setting [12], 36 % of control and 58 % of control.

With `CC1(CO)C(O)CCC2(C)C1CCC1CC3CC12CCC3(O)CO` (stereo not given), the T/C is, setting by setting: under setting [13], 120 % of control; under setting [2], 103 % of control; under setting [4], 100 % of control; under setting [6], 124 % of control; under setting [7], 77 % of control; under setting [8], 89 % of control.

With `O=C(O)CCCc1ccc(N(CCCl)CCCl)cc1`, the T/C was 103 % of control (dose: 7.5 mg/kg/injection, schedule: Q07DX003 (ip), vehicle: saline with Tween-80); 62 % of control and 72 % of control and 82 % of control (dose: 15.0 mg/kg/injection, schedule: Q07DX002 (ip), vehicle: Klucel (hydroxypropylcellulose) (HPC)); 37 % of control (dose: 15.0 mg/kg/injection, schedule: Q07DX003 (ip), vehicle: saline with Tween-80); 62 % of control (dose: 30.0 mg/kg/injection, schedule: Q07DX003 (ip), vehicle: saline with Tween-80); 69 % of control (dose: 60.0 mg/kg/injection, schedule: Q07DX002 (ip), vehicle: Klucel (hydroxypropylcellulose) (HPC)).

With `CC[C@](C)(O)C(=O)O[C@H]1C(=O)O[C@@H]2C[C@H]3C(C)=CC(=O)[C@@H](O)[C@]3(C)[C@H]3[C@@]4(O)OC[C@]32[C@@H]1[C@@H](C)[C@H]4O`, the T/C is, setting by setting: (dose: 0.13 mg/kg/injection, schedule: Q07DX002 (ip), vehicle: saline with Tween-80) 91 % of control; under setting [14], 90 % of control; under setting [15], 60 % of control; under setting [16], 62 % of control; under setting [17], 47 % of control.

Values taken from PubChem BioAssay AID212 (DTP/NCI, 2004).
